Reference: patent US10155756B2, “Pyrazolo[1,5-A]pyridine compounds and use thereof” (GUANGZHOU INSTITUTES OF BIOMEDICINE AND HEALTH, CHINESE …, priority 2014, dated 2018)
Values after ≈ are worked out from the molar mass of the structure shown. Counter-ions that a name gives are not always drawn. Like-named read-outs stand apart in the source and are kept apart here.

Experiments:
[1] = tested on: self-luminescent tuberculosis; assay: microbe, parasite or virus in culture; type: cell-based
[2] = tested on: Mycobacterium tuberculosis standard strain H37Rv; assay: MIC of Mycobacterium tuberculosis by a plate method; conditions: 7H11 plates, 37° C. for 4 weeks, colony count
[3] = tested on: clinical sorted MDR-TB P91; assay: microbe, parasite or virus in culture; type: cell-based; conditions: Mycobacterium tuberculosis, MDRTBP91
[4] = tested on: clinical sorted MDR-TB P105; assay: microbe, parasite or virus in culture; type: cell-based; conditions: Mycobacterium tuberculosis, MDRTBP105
[5] = tested on: clinical sorted MDR-TB P103; assay: microbe, parasite or virus in culture; type: cell-based; conditions: Mycobacterium tuberculosis, MDRTBP103
in vivo = assay: in vivo; parameters: species or system SD rats; conditions: rat; for bioavailability / AUC(0-inf) / Cmax / T^1/2 / Tmax: SD
Experimental: Example 55: Pharmacokinetic Studies of Compounds TJ170298 and TJ170385
1. Administration and Sample Collection a. Rat intravenous administration: SD rats 3, weight 180˜220 g. Fasting 12 h before administration, a small amount of food was allowed during the experiment, and water was free. The compounds TJ170298 and TJ170385 were administered intravenously at a dose of 2 mg/kg. The rats were respectively taken 0.3 mL orbital blood at 2 min, 10 min, 30 min, 1.0 h, 2.0 h, 3.0 h, 4.0 h, 6.0 h, 8.0 h, 12.0 h, 21 h, 24.0 h, 30 h, 36 h, 48 h, 60 h, 72 h after administration, which was then placed in heparinized test tube, centrifuged 10 min at 6000 rpm, and plasma was separated, preserved at 4° C. to be measured. […]
b. Rat oral administration: SD rats 3, weight 180˜220 g. Fasting for 12 h before administration, a small amount of food was allowed during the experiment, and water was free. The compounds TJ170298 and TJ170385 were orally administered at a dose of 10 mg/kg, respectively. The rats were respectively taken 0.3 mL orbital blood at 2 min, 10 min, 30 min, 1.0 h, 2.0 h, 3.0 h, 4.0 h, 6.0 h, 8.0 h, 12.0 h, 21 h, 24.0 h, 30 h, 36 h, 48 h, 60 h, 72 h after administration, which was then placed in heparinized test tube, centrifuged 10 min at 6000 rpm, and plasma was separated, preserved at 4° C. to be measured.
2. Determination of Plasma Samples a. Plasma Sample Treatment
150 μl of the internal standard solution ([…], acetonitrile solution) was added to 50 μL of the above plasma sample, mixed well; after eddy mixing for 2 min, centrifuge for 30 min (13000 rpm, 4° C.), supernatant was taken to another centriguge tube, and 20 μL of which was taken for LC/MS/MS analysis. […]
b. Preparation of Standard Curve
50 μL of rat blank plasma was taken, to which 10 μL of compound standard series solution was added to prepare compound plasma samples equivalent to plasma concentration of 20, 50, 100, 500, 1000, 2000, 4000, 6000, 12000, 40000 ng/mL. According to “plasma sample treatment” item, the standard curve was established. The concentration (X) of an analyte is as the abscissa, the peak area ratio (y) of the analyte and the internal standard is as the ordinate, and the regression is performed by the weighted (W=1/x2) least squares method to obtain the linear regression Equation, that is, the standard curve.
C. Data Processing and Analysis
The pharmacokinetic parameters of rats after administration were calculated by DAS 2.0 software.

[6] = tested on: Mycobacterium tuberculosis standard strain H37Rv; assay: Plate MIC of Example 53, standard strain H37Rv; type: cell-based
[7] = tested on: mycobacterium tuberculosis self-luminescent bacteria H37Ra; conditions: for spleen anti-tuberculosis activity compared with the positive control Rifampicin: in vivo
[8] = Mycobacterium tuberculosis, 72 h, read-out: MIClux
[9] = Mycobacterium tuberculosis, 72 h; read-out: MIClux

In the case of `Cc1nn2ccccc2c1C(=O)NCc1ccc(N2CCC(c3ccc(OC(F)(F)F)cc3)CC2)cc1` [TJ170381, 2-methyl-N-(4-(4-(4-(trifluoromethoxy)phenyl)piperidine-1-yl)benzyl) pyrazolo [1,5-a] pyridine-3-carboxamide], the MIC [1, 8] is reported as under 1 µg/mL and the MIC [2] is reported as 0.1 µg/mL.
In the case of `CO[C@H]1/C=C/O[C@@]2(C)Oc3c(C)c(O)c4c(O)c(c(/C=N/N5CCN(C)CC5)c(O)c4c3C2=O)NC(=O)/C(C)=C\C=C\[C@H](C)[C@H](O)[C@@H](C)[C@@H](O)[C@@H](C)[C@H](OC(C)=O)[C@@H]1C` [RIF, rifampicin, reference compound], the MIC [3] is reported as 1 to 10 µg/mL (≈ 1.22 to 12.2 µM), the MIC [4] is reported as over 10 µg/mL and the MIC [5] is reported as over 10 µg/mL.
`O=C(NCc1ccc(N2CCC(c3ccc(OC(F)(F)F)cc3)CC2)cc1)c1c(C2CC2)nn2ccc(Cl)cc12` [TJ170375, 5-chloro-2-cyclopropyl-N-(4-(4-(4-(trifluoromethoxy)phenyl)piperidine-1-substituted)benzyl) pyrazolo [1,5-a] pyridine-3-carboxamide] gave an MIC [1, 9] of under 1 µg/mL and an MIC [2] of 0.1 µg/mL.
Work on `CCc1nn2ccc(Cl)cc2c1C(=O)NCc1ccc(N2CCC(c3ccc(OC(F)(F)F)cc3)CC2)cc1` [TJ170298 (hydrochloride), 5-chloro-2-ethyl-N-(4-(4-(4-(trifluoromethoxy)phenyl)piperidine-1-yl)benzyl) pyrazolo [1,5-a]pyridine-3-carboxamide] yielded a bioavailability (in vivo) of 24.1%, an AUC(0-inf) (in vivo; iv, 2 mg/kg) of 3900 ng·h/mL and a Cmax (in vivo; iv, 2 mg/kg) of 1550 ng/mL. The “T^1/2” value (in vivo; iv, 2 mg/kg) was 19.975 h, the Tmax (in vivo; iv, 2 mg/kg) was 0.033 h and the AUC(0-inf) (in vivo; po, 10 mg/kg) was 4700 ng·h/mL. The Cmax (in vivo; po, 10 mg/kg) was 509 ng/mL, the “T^1/2” value (in vivo; po, 10 mg/kg) was 19.699 h and the Tmax (in vivo; po, 10 mg/kg) was 2 h.
With `NNC(=O)c1ccncc1` [isoniazid, reference compound] the MIC [2] was “<=0.1 μg/mL”.
`CCc1nn2ccc(Cl)cc2c1C(=O)NCc1ccc(N2CCC(c3ccc(OC(F)(F)F)cc3)CC2)cc1` [TJ170298, 5-chloro-2-ethyl-N-(4-(4-(4-(trifluoromethoxy)phenyl)piperidine-1-yl)benzyl) pyrazolo [1,5-a]pyridine-3-carboxamide] gave an MIC [1, 8] of under 1 µg/mL, an MIC [3] of under 0.075 µg/mL and an MIC [4] of 0.15 µg/mL (≈ 0.269 µM). For the same molecule, the MIC [5] was under 0.075 µg/mL, the MIC [6] was 0.012 µg/mL and the “in vivo anti-tuberculosis activity (luminous values within live mice)” value [7] was “obvious in vivo anti-tuberculosis activity”. The “in vivo anti-tuberculosis activity compared with the positive control Rifampicin” value [7] was “equal to or better than that of the positive control Rifampicin”, the “spleen anti-tuberculosis activity compared with the positive control Rifampicin” value [7] was “bad than that of the positive control Rifampicin” and the “pharmacokinetic properties (in words)” value (in vivo) was “good pharmacokinetic properties”.
In the case of `Cc1ccn2nc(C)c(C(=O)NCc3ccc(N4CCC(c5ccc(OC(F)(F)F)cc5)CC4)cc3)c2c1` [TJ170385, 2,5-dimethyl-N-(4-(4-(4-(trifluoromethoxy)phenyl)piperidine-1-yl)benzyl) pyrazolo [1,5-a] pyridine-3-carboxamide], the MIC [1, 8] is reported as under 1 µg/mL, the “in vivo anti-tuberculosis activity (luminous values within live mice)” value [7] is reported as “obvious in vivo anti-tuberculosis activity” and the “in vivo anti-tuberculosis activity compared with the positive control Rifampicin” value [7] is reported as “equal to or better than that of the positive control Rifampicin”. For the same molecule, the “spleen anti-tuberculosis activity compared with the positive control Rifampicin” value [7] was “bad than that of the positive control Rifampicin”, the bioavailability (in vivo) was 94.5% and the AUC(0-inf) (in vivo; iv, 2 mg/kg) was 2030 ng·h/mL. For the same molecule, the Cmax (in vivo; iv, 2 mg/kg) was 1040 ng/mL, the “T^1/2” value (in vivo; iv, 2 mg/kg) was 10.933 h and the AUC(0-inf) (in vivo; po, 10 mg/kg) was 9590 ng·h/mL. The Cmax (in vivo; po, 10 mg/kg) was 644 ng/mL, the “T^1/2” value (in vivo; po, 10 mg/kg) was 27.374 h and the Tmax (in vivo; po, 10 mg/kg) was 2 h. For the same molecule, the “pharmacokinetic properties (in words)” value (in vivo) was “good pharmacokinetic properties” and the MIC [2] was 0.01 µg/mL.
Molecule `CCc1nn2ccc(Cl)cc2c1C(=O)NCc1ccc(C(F)(F)F)cc1` [TJ170322] has an MIC [1, 9] of under 1 µg/mL and an MIC [2] of 0.1 µg/mL.
In the case of `Cc1nn2ccc(Cl)cc2c1C(=O)NCc1ccc(N2CCC(c3ccc(OC(F)(F)F)cc3)CC2)cc1` [TJ170372, 5-chloro-2-methyl-N-(4-(4-(4-(trifluoromethoxy)phenyl)piperidine-1-yl)benzyl) pyrazolo [1,5-a] pyridine-3-carboxamide], the MIC [1, 9] is reported as under 1 µg/mL, the “in vivo anti-tuberculosis activity (luminous values within live mice)” value [7] is reported as “obvious in vivo anti-tuberculosis activity” and the “in vivo anti-tuberculosis activity compared with the positive control Rifampicin” value [7] is reported as “equal to or better than that of the positive control Rifampicin”. For the same molecule, the “spleen anti-tuberculosis activity compared with the positive control Rifampicin” value [7] was “bad than that of the positive control Rifampicin” and the MIC [2] was 0.01 µg/mL.
In the case of `Cc1ccn2nc(C)c(C(=O)NCc3ccc(-c4ccc(OC(F)(F)F)cc4)nc3)c2c1` [TJ830025, 2,5-dimethyl-N-((6-(4-(trifluoromethoxy)phenyl)pyridine-3-yl)methyl) pyrazolo [1,5-a] pyridine-3-carboxamide], the MIC [1, 9] is reported as under 1 µg/mL.
With `Cc1ccn2nc(C)c(C(=O)NCc3cnc(-c4ccc(OC(F)(F)F)cc4)nc3)c2c1` [TJ830150, 2,5-Dimethyl-N-((2-(4-(trifluoromethoxy)phenyl)pyrimidine-5-yl)methyl) pyrazolo [1,5-a] pyridine-3-carboxamide] the MIC [1, 9] was under 1 µg/mL.
